Molecules are shown by their SMILES. pIC50: −log10 of the molar value.

For the assay, the target named is Metabotropic glutamate receptor 5 (Homo sapiens, UniProt P41594). In words: Calcium Mobilization Assay: The rmGluR5 or hmGluR5 was stably expressed in a HEK 293 cell line and gown in Dulbecco's Modified Eagle Medium (DMEM) (Invitrogen, Carlsbad, Calif.) with supplements (10% bovine calf serum, 4 mM glutamine, 100 units/mL penicillin, 100 μg/mL streptomycin and 0.75 mM G1418) at 37° C., 5% CO2. Twenty-four hours prior to assay, cells were seeded into 384-well black wall microtiter plates coated with poly-D-lysine. Just prior to assay, media was aspirated and cells dye-loaded (25 μL/well) with 3 μM Fluo-4/0.01% pluronic acid in assay buffer (Hank's Balanced Saline Solution (HBSS)): 150 mM NaCl, 5 mM KCl, 1 mM CaCl2, 1 mM MgCl2, plus 20 mM N-2-Hydroxyethylpiperazine-N′-2-ethanesulfonic acid (HEPES), pH 7.4, 0.1% bovine serum albumin (BSA) and 2.5 mM probenecid) for 1 hour in 5% CO2 at 37° C. After excess dye was discarded, cells were washed in assay buffer and layered with a final volume equal to 30 μL/well. Basal fluorescence is monitored in a fluorometri. Format: functional, cell-based, HEK293.
Metabotropic glutamate receptor 5, sequence (P41594 whole entry): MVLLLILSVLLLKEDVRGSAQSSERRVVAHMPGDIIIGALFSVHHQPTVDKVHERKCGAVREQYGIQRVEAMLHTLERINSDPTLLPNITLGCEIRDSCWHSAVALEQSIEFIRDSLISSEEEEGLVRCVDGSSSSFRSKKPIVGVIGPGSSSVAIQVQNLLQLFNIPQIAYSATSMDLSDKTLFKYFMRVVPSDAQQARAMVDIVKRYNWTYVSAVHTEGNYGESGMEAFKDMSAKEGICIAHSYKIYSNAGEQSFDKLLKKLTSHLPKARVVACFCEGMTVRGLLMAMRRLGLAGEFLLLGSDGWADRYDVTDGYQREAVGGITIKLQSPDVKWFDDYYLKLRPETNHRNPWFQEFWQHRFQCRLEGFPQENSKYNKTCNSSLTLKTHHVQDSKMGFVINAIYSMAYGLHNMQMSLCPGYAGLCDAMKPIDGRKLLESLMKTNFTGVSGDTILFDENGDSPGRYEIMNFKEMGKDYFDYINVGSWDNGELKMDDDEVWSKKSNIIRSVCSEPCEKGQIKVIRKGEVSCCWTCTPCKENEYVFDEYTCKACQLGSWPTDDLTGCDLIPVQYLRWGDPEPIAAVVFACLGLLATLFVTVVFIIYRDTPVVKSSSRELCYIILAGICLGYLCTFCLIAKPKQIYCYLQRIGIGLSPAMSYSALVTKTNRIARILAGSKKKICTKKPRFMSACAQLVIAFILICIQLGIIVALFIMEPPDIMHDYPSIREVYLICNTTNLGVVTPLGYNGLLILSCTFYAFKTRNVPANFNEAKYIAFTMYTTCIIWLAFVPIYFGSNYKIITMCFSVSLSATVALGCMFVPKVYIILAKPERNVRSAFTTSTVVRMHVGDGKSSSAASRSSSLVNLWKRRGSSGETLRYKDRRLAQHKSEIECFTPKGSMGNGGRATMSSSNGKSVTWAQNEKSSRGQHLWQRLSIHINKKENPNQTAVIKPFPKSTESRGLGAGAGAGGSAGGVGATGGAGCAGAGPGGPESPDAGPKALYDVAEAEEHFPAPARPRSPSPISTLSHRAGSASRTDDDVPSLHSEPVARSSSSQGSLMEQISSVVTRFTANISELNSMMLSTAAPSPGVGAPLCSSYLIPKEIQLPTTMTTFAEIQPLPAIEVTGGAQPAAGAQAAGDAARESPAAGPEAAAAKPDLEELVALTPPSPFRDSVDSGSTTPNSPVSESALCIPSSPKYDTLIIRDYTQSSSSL
On to `Cc1ccc(C#CC23CC4CC(C2)CC(NC(=O)c2cnccn2)(C4)C3)cn1`, for which the pIC50 is 6.15.
Take `Cc1cncc(C(=O)NC23CC4CC(CC(C#Cc5cccnc5)(C4)C2)C3)n1`: the pIC50 was 8.42.
The same measure for `O=C(NC12CCCC(C#Cc3cccc(F)c3)(CC1)C2)c1cnccn1` (stereo unspecified): 8.92; for `O=C(NC12CC3CC(CC(C#Cc4cnccn4)(C3)C1)C2)c1cncc(F)c1`: 7.52; for `O=C(N[C@@]12CCC[C@@](C#Cc3ncccc3F)(CC1)C2)c1cnccn1`: 8.03.
The same measure for `Cc1cccc(C#C[C@]23CCC[C@](NC(=O)c4ccccn4)(CC2)C3)n1`: 8.28.

The values above are taken from ChEMBL document CHEMBL3886414, “Bicarbocyclic and tricarbocyclic ethynyl derivatives and uses of same” (2015).
